What was measured:
D. melanogaster VAChT [1] = biological target: T1, D. melanogaster VAChT (Drosophila melanogaster, UniProt O17444); assay: inhibition of vesicular acetylcholine uptake, PNS from PC12 cells expressing VAChT; assay type: biochemical; conditions: substrate acetylcholine
T1 construct: full-length gene cloned by PCR from adult fly cDNA library, Gateway vector, expressed in PC12 cells (rat)
T1 sequence (O17444 1-578): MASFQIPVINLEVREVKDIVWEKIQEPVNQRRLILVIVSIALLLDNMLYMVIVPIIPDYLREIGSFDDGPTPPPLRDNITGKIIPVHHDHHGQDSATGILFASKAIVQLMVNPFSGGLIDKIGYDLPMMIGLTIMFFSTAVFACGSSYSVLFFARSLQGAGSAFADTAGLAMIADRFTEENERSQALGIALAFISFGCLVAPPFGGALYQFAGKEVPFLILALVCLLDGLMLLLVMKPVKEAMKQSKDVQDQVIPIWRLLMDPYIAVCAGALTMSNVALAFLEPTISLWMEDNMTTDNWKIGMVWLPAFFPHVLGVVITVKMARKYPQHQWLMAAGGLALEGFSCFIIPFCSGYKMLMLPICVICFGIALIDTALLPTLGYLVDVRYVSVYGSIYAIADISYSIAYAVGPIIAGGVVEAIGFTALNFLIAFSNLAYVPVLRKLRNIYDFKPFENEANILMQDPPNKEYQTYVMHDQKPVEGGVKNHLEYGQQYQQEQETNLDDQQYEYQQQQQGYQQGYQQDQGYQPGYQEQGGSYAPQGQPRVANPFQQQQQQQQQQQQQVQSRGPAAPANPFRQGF

D. melanogaster VAChT [2] = biological target: T1, D. melanogaster VAChT; assay: [3H]-SYN876 saturation binding to membranes of PC12 cells expressing VAChT
D. melanogaster VAChT [3] = biological target: T1, D. melanogaster VAChT; assay: displacement of [3H]-SYN876 from membranes of PC12 cells expressing VAChT; assay type: binding; conditions: competition with [3H]-SYN876

| SMILES | IC50 (D. melanogaster VAChT [1]) | Kd (D. melanogaster VAChT [2]) | IC50 (D. melanogaster VAChT [3]) |
| --- | --- | --- | --- |
| O=C(c1ccnc(Cl)c1)N1CC2(CCN(C/C=C/c3ccc(Cl)cc3)CC2)c2cc(F)ccc21 [SYN876] | Inhibition of the acetylcholine transport activity of PNS from the cells | 0.04 nM | – |
| OC1CCCCC1N1CCC(c2ccccc2)CC1 (stereo not shown) [vesamicol] | – | – | displaced by the known VAChT inhibitors vesamicol and aminobenzovesamicol (table S3) |
| Nc1cccc2c1CC(N1CCC(c3ccccc3)CC1)C(O)C2 (stereo not shown) [aminobenzovesamicol] | – | – | displaced by the known VAChT inhibitors vesamicol and aminobenzovesamicol (table S3) |
